Measured values reported in patent US3965109A, “Certain aryl amino pyridines” (priority 1971, dated 1976).

Columns and labels:
[1] = tested on: Puccinia recondita (wheat); assay: Fungicidal test against foliar disease A (foliage spray plus soil drench); assay type: in vivo; conditions: 10 days; for Amount of disease grading, disease A (Table 4): 100 ppm spray and drench
[2] = tested on: Phytophthora infestans (tomato); assay type: in vivo; conditions: 50 ppm spray + 200 ppm soil drench; 3 days
[3] = tested on: Plasmopara viticola (vine); assay: Fungicidal test against foliar disease C (foliage spray plus soil drench); assay type: in vivo; conditions: 10 days
Uncinula necator (vine) = assay: Fungicidal test against foliar disease D (foliage spray plus soil drench); assay type: in vivo; conditions: 10 days
[4] = tested on: Piricularia oryzae (rice); assay type: in vivo; conditions: 7 days
[5] = tested on: Tetranychus telarius (red spider mites, adults); assay: Pest toxicity test; assay type: in vivo; conditions: 0.1% by weight; French bean; 3 days
[6] = tested on: Tetranychus telarius (red spider mites, eggs); assay: Pest toxicity test; assay type: in vivo; conditions: 0.1% by weight; French bean; 3 days
Aphis fabae = assay: Pest toxicity test; assay type: in vivo; conditions: 0.1% by weight; broad bean; 2 days
Megoura viceae = assay: Pest toxicity test; assay type: in vivo; conditions: 0.1% by weight; broad bean; 2 days
[7] = tested on: Aedes aegypti (mosquito larvae); assay: Pest toxicity test; assay type: in vivo; conditions: for Mortality grading (kill): 0.01% by weight, water, 1 day
[8] = tested on: Aedes aegypti (mosquito adults); assay: Pest toxicity test; assay type: in vivo; conditions: 0.01% by weight; plywood; 1 day
[9] = tested on: Musca domestica (houseflies); assay: Pest toxicity test, contact test; assay type: in vivo; conditions: 0.1% by weight; milk/sugar; 2 days; flies sprayed directly
[10] = tested on: Pieris brassicae (cabbage white caterpillars); assay: Pest toxicity test; assay type: in vivo; conditions: 0.1% by weight, 2 days
[11] = tested on: Plutella maculipennis (diamond back moth larvae); assay: Pest toxicity test; assay type: in vivo; conditions: in vivo
[12] = tested on: Phaedon cochleariae (mustard beetles); assay: Pest toxicity test; assay type: in vivo; conditions: in vivo
[13] = tested on: Agriolimax reticulatus (slugs); assay: Molluscicidal activity test; assay type: in vivo, Agriolimax reticulatus (Mull); conditions: pellet with 4% by weight; 6 days; 10°C
Description: A weighed sample of the compound under test was dissolved in 0.5 c.c. of an ethanol and acetone mixture 50:50 v/v). The solution was diluted with 0.5 cc water and poured onto a calf feeding pellet in a glass Petri dish. The pellet was then air dried for 24 hours. The weight of compound used was chosen so that the dried pellet contained 4% by weight of the active ingredient. Two replicates each consisting of a plastic Petri dish containing a pellet, 2 slugs, and a moistened filter paper to maintain a high relative humidity were used in each test. The dishes were left in a cold room (10°C.) After 6 days the kill was assessed.
The slugs used were Agriolimax reticulatus (Mull), and they had been starved for 24 hours before the commencement of the tests.

Lettuce = assay: Herbicidal test, pre- and post-emergence; assay type: in vivo; conditions: 10 kg/ha; scale 0 to 3 (complete kill)
Tomato = assay: Herbicidal test, pre- and post-emergence; assay type: in vivo; conditions: 10 kg/ha; scale 0 to 3 (complete kill)
Wheat = assay: Herbicidal test, pre- and post-emergence; assay type: in vivo; conditions: 10 kg/ha; scale 0 to 3 (complete kill)
Maize = assay: Herbicidal test, pre- and post-emergence; assay type: in vivo; conditions: 10 kg/ha; scale 0 to 3 (complete kill)
Sugar beet = assay: Further herbicidal test, various rates; assay type: in vivo; conditions: 5 kg/hectare; scale 0 to 5 (complete kill)
Kale = assay: Further herbicidal test, various rates; assay type: in vivo; conditions: 5 kg/hectare; scale 0 to 5 (complete kill)
Carrot = assay: Further herbicidal test, various rates; assay type: in vivo; conditions: 5 kg/hectare; scale 0 to 5 (complete kill)
Pea = assay: Further herbicidal test, various rates; assay type: in vivo; conditions: 5 kg/hectare; scale 0 to 5 (complete kill)
Onion = assay: Further herbicidal test, various rates; assay type: in vivo; conditions: 5 kg/hectare; scale 0 to 5 (complete kill)
Barley = assay: Further herbicidal test, various rates; assay type: in vivo; conditions: 5 kg/hectare; scale 0 to 5 (complete kill)
Rice = assay: Further herbicidal test, various rates; assay type: in vivo; conditions: 5 kg/hectare; scale 0 to 5 (complete kill)
Oat = assay: Further herbicidal test, various rates; assay type: in vivo; conditions: 5 kg/hectare; scale 0 to 5 (complete kill)
[14] = 50 ppm spray + 200 ppm soil drench

| SMILES | Mortality grading (kill) [5] | Mortality grading (kill) [6] | Mortality grading (kill) (Aphis fabae) | Mortality grading (kill) (Megoura viceae) | Mortality grading (kill) [7] | Mortality grading (kill) [8] | Mortality grading (kill), contact test [9] | Mortality grading (kill) [10] | Mortality grading (kill) [11] | Mortality grading (kill) [12] | % Kill of slugs [13] [%] | Amount of disease grading, disease A (Table 4) [1] | Damage to plants, post-emergence (Lettuce) | Damage to plants, pre-emergence (Lettuce) | Damage to plants, post-emergence (Tomato) | Damage to plants, pre-emergence (Tomato) | Damage to plants, post-emergence (Wheat) | Damage to plants, pre-emergence (Wheat) | Damage to plants, post-emergence (Maize) | Damage to plants, pre-emergence (Maize) | further results |
| --- | --- | --- | --- | --- | --- | --- | --- | --- | --- | --- | --- | --- | --- | --- | --- | --- | --- | --- | --- | --- | --- |
| O=[N+]([O-])c1ccc(Nc2c(Cl)c(Cl)nc(Cl)c2Cl)c([N+](=O)[O-])c1 [Compound 8, Tetrachloro-4(2,4-dinitroanilino)pyridine] | 3 (3 represents over 90% kill) | 3 (3 represents over 90% kill) | 0 (O represents less than 30% kill) | 0 (O represents less than 30% kill) | 0 (O represents less than 30% kill) | 0 (O represents less than 30% kill) | 0 (O represents less than 30% kill) | 0 (O represents less than 30% kill) | 0 (key: O represents less than 30% kill; 1 represents 30 - 49% kill; 2 represents 60 - 90% kill; 3 represents over 90% kill; C indicates a chemosterilant effect.; A indicates an antifeeding effect.) | 0 (key: O represents less than 30% kill; 1 represents 30 - 49% kill; 2 represents 60 - 90% kill; 3 represents over 90% kill; C indicates a chemosterilant effect.; A indicates an antifeeding effect.) | 100 | – | – | – | – | – | – | – | – | – | Amount of disease grading, disease A [1, 14]: 0 (61 to 100); Amount of disease grading, disease B [2]: 3 (0 to 5); Amount of disease grading, disease C [3, 14]: 3 (0 to 5); Amount of disease grading, disease D (Uncinula necator (vine); [14]): 0 (61 to 100); Amount of disease grading, disease E [4, 14]: 0 (61 to 100); abnormal growth effects in larva of mosquitos ([7]; in vivo): abnormal growth effects |
| O=[N+]([O-])c1cc(Cl)c(Nc2c(Cl)c(F)nc(F)c2Cl)c(Cl)c1 [Compound 27, 3,5-Dichloro-2,6-difluoro-4(2,6-dichloro-4-nitroanilino)pyridine] | 3 (3 represents over 90% kill) | 3 (3 represents over 90% kill) | 3 (3 represents over 90% kill) | 3 (3 represents over 90% kill) | 3 (3 represents over 90% kill) | 2 (2 represents 60 - 90% kill) | 3 (3 represents over 90% kill) | 0 (O represents less than 30% kill) | 0 (key: O represents less than 30% kill; 1 represents 30 - 49% kill; 2 represents 60 - 90% kill; 3 represents over 90% kill; C indicates a chemosterilant effect.; A indicates an antifeeding effect.) | 0 (key: O represents less than 30% kill; 1 represents 30 - 49% kill; 2 represents 60 - 90% kill; 3 represents over 90% kill; C indicates a chemosterilant effect.; A indicates an antifeeding effect.) | 100 | 0 (61 to 100) | 3 | 3 | 1 | 3 | 0 | 0 | 0 | 0 | Amount of disease grading, disease C (Table 4) ([3]; 100 ppm spray and drench): 3 (0 to 5); Amount of disease grading, disease D (Table 4) (Uncinula necator (vine); 100 ppm spray and drench): 3 (0 to 5); Damage to plants, pre-emergence (Sugar beet): 4; Damage to plants, pre-emergence (Kale): 4; Damage to plants, pre-emergence (Carrot): 4; Damage to plants, pre-emergence (Pea): 3; Damage to plants, pre-emergence (Onion): 0; Damage to plants, pre-emergence (Barley): 0; Damage to plants, pre-emergence (Rice): 0; Damage to plants, pre-emergence (Oat): 0 |
| N#Cc1c(F)c(F)c(Nc2c(Cl)c(Cl)nc(Cl)c2Cl)c(F)c1F [Compound 42, 4(4-Cyano-2,3,5,6-tetrafluoroanilino)tetrachloropyridine] | 3 (3 represents over 90% kill) | 3 (3 represents over 90% kill) | 3 (3 represents over 90% kill) | 3 (3 represents over 90% kill) | 3 (3 represents over 90% kill) | 0 (O represents less than 30% kill) | 3 (3 represents over 90% kill) | 3 (3 represents over 90% kill) | 0 (key: O represents less than 30% kill; 1 represents 30 - 49% kill; 2 represents 60 - 90% kill; 3 represents over 90% kill; C indicates a chemosterilant effect.; A indicates an antifeeding effect.) | 0 (key: O represents less than 30% kill; 1 represents 30 - 49% kill; 2 represents 60 - 90% kill; 3 represents over 90% kill; C indicates a chemosterilant effect.; A indicates an antifeeding effect.) | 50 | 3 (0 to 5) | 2 | 3 | 3 | 3 | 0 | 3 | 0 | 3 | Amount of disease grading, disease E (Table 4) ([4]; 100 ppm spray and drench): 0 (61 to 100); Damage to plants, post-emergence (Sugar beet): 5; Damage to plants, pre-emergence (Sugar beet): 5; Damage to plants, post-emergence (Kale): 5; Damage to plants, pre-emergence (Kale): 4; Damage to plants, post-emergence (Carrot): 5; Damage to plants, pre-emergence (Carrot): 5; Damage to plants, post-emergence (Pea): 1; Damage to plants, pre-emergence (Pea): 2; Damage to plants, pre-emergence (Onion): 5; Damage to plants, post-emergence (Barley): 1; Damage to plants, pre-emergence (Barley): 3; Damage to plants, post-emergence (Rice): 0; Damage to plants, pre-emergence (Rice): 3; Damage to plants, post-emergence (Oat): 4; Damage to plants, pre-emergence (Oat): 4 |
